SMILES strings stand for the structures.

From patent publication US8288431B2, “Substituted spiroindolinones” (Hoffmann-La Roche Inc., priority 2010, dated 2012) come the findings set out here.

The target in the test is interaction between p53 and MDM2 proteins (recombinant GST-tagged MDM2, biotinylated p53 peptide) (Homo sapiens, UniProt Q00987). As to the kind of experiment: HTRF (homogeneous time-resolved fluorescence) assay of p53-MDM2 interaction. Type of test: binding. To be noted: bsa 0.02%. How it is done: The ability of the compounds to inhibit the interaction between p53 and MDM2 proteins was measured by an HTRF (homogeneous time-resolved fluorescence) assay in which recombinant GST-tagged MDM2 binds to a peptide that resembles the MDM2-interacting region of p53 (Lane et al.). Binding of GST-MDM2 protein and p53-peptide (biotinylated on its N-terminal end) is registered by the FRET (fluorescence resonance energy transfer) between Europium (Eu)-labeled anti-GST antibody and streptavidin-conjugated Allophycocyanin (APC).
Sequence of interaction between p53 and MDM2 proteins (recombinant GST-tagged MDM2, biotinylated p53 peptide) (Q00987 whole entry): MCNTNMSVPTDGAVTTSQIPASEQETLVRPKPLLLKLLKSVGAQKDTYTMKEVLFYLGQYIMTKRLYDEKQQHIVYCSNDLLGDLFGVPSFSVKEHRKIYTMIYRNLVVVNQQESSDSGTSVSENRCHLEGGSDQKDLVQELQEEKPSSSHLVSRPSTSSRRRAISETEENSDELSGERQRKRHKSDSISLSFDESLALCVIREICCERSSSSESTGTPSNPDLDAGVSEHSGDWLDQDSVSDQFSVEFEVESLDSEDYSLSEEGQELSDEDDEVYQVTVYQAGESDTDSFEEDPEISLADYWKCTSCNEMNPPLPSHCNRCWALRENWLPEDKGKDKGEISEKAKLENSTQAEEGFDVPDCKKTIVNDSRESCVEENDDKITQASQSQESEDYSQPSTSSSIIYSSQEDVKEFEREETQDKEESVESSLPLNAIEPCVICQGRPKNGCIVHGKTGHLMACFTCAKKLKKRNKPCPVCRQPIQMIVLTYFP
Add 10 uL diluted compounds (1:5 dilution in reaction buffer) to each well, mix by shaking. Add 20 uL biotinylated p53 peptide (180 nM working solution) in reaction buffer to each well and mix on shaker. Incubate at 37° C. for 1 h. Add 20 uL streptavidin-APC and Eu-anti-GST antibody mixture (6 nM Eu-anti-GST and 60 nM streptavidin-APC working solution) in TBS buffer with 0.2% BSA, shake at room temperature for 30 minutes and read using a TRF-capable plate reader at
665 and 615 nm (Victor 5, Perkin ElmerWallac). If not specified, the reagents were purchased from Sigma Chemical Co.
(In general: TR-FRET usually uses a lanthanide donor and a delayed reading to cut background.)
On to `CC(C)(CO)C[C@@H]1CN(C(=O)NCC[C@H](O)CO)[C@H](c2cccc(Cl)c2F)[C@]12C(=O)Nc1cc(Cl)ccc12` (mixture of isomers) [Example 33, rac-(2′S,3′S,4′S)-6-chloro-2′-(3-chloro-2-fluoro-phenyl)-4′-(3-hydroxy-2,2-dimethyl-propyl)-2-oxo-1,2-dihydro-spiro[indole-3,3′-pyrrolidine]-1′-carboxylic acid ((S)-3,4-dihydroxy-butyl)-amide], for which the IC50 turned out to be 0.725 µM.

As for `CC(C)(C)C[C@@H]1CN[C@H](c2cccc(Cl)c2F)[C@]12C(=O)Nc1cc(Cl)ccc12` (racemic) [Example 6, rac-(2′S,3′S,4′S)-6-chloro-2′-(3-chloro-2-fluoro-phenyl)-4′-(2,2-dimethyl-propyl)-1H-spiro[indole-3,3′-pyrrolidin]-2-one], the half-inhibitory concentration (IC50) stood at 0.773 µM.

In the case of `COC(=O)c1ccc(NC(=O)N2C[C@@H](CC(C)(C)C)[C@@]3(C(=O)Nc4cc(Cl)ccc43)[C@H]2c2cccc(Cl)c2F)cc1` (racemic) [Example 12, rac-4-{[(2′S,3′S,4′S)-6-chloro-2′-(3-chloro-2-fluoro-phenyl)-4′-(2,2-dimethyl-propyl)-2-oxo-1,2-dihydro-spiro[indole-3,3′-pyrrolidin]e-1′-carbonyl]-amino}-benzoic acid methyl ester], the IC50 is 0.581 µM.

As for `CC(C)(C)C[C@@H]1CN(C(=O)OCc2ccc(C(=O)O)cc2)[C@H](c2cccc(Cl)c2F)[C@]12C(=O)Nc1cc(Cl)ccc12` (racemic) [Example 49, rac-(2′S,3′S,4′S)-6-chloro-2′-(3-chloro-2-fluoro-phenyl)-4′-(2,2-dimethyl-propyl)-2-oxo-1,2-dihydro-spiro[indole-3,3′-pyrrolidine]-1′-carboxylic acid 4-carboxy-benzyl ester], the IC50 worked out at 0.178 µM.

Consider `CC(C)(C)C[C@@H]1CN(C(=O)NC2CCN(S(C)(=O)=O)CC2)[C@H](c2cccc(Cl)c2F)[C@]12C(=O)Nc1cc(Cl)ccc12` [Example 28, chiral (2′S,3′S,4′S)-6-chloro-2′-(3-chloro-2-fluoro-phenyl)-4′-(2,2-dimethyl-propyl)-2-oxo-1,2-dihydro-spiro[indole-3,3′-pyrrolidine]-1′-carboxylic acid (1-methanesulfonyl-piperidin-4-yl)-amide], for which the IC50 was 0.133 µM.

The term IC50 denotes the point on the concentration scale where inhibition reaches its midpoint.
